{"source": "patent US9758524B2", "about": "“4-imidazopyridazin-1-yl-benzamides as Btk inhibitors” (Merck Sharp & Dohme B.V., priority 2011, dated 2017)", "key": {"[1]": {"target": "Src enzyme (Homo sapiens (Human), UniProt P12931)", "sequence (P12931 whole entry, looked up)": "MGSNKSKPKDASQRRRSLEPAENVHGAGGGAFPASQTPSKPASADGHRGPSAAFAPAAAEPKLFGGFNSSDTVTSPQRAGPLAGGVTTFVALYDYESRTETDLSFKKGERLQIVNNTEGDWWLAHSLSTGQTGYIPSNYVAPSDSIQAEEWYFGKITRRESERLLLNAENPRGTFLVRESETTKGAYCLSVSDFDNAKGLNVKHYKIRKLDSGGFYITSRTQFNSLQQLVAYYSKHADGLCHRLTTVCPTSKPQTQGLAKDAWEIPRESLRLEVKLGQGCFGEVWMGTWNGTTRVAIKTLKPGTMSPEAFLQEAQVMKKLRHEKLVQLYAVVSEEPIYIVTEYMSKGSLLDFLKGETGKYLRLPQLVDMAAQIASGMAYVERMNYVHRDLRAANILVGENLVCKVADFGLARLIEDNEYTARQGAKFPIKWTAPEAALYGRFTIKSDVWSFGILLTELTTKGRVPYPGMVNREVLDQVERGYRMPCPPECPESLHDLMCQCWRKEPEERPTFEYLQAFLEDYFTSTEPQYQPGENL", "test": "Src enzyme activity (IMAP fluorescence polarization assay)", "details": "read-out: EC50 Src activity values; IMAP, 60 min pre-incubation, 4 μM ATP"}, "[2]": {"target": "Lyn enzyme (Homo sapiens (Human), UniProt P07948)", "sequence (P07948 whole entry)": "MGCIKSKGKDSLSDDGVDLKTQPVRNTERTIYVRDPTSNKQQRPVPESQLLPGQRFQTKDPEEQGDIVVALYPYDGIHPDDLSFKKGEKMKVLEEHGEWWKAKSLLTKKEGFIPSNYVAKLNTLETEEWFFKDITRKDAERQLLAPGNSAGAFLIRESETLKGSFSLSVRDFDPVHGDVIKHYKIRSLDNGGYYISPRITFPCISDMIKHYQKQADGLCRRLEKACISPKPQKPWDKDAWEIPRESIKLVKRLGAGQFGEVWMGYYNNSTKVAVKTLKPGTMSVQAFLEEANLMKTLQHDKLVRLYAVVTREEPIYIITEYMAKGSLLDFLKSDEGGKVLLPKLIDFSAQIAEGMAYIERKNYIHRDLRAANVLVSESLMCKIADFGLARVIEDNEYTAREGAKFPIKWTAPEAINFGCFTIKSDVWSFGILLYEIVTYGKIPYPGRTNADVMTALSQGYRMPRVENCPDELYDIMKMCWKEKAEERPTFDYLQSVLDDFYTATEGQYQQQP", "test": "Lyn enzyme activity (IMAP fluorescence polarization assay)", "details": "read-out: EC50 Lyn activity values, 60 min pre-incubation, 2 μM ATP, bin bound in μM"}, "[3]": {"target": "FynT enzyme (Homo sapiens (Human), UniProt P06241)", "sequence (P06241 other isoform, or with tags, fused parts or gaps)": "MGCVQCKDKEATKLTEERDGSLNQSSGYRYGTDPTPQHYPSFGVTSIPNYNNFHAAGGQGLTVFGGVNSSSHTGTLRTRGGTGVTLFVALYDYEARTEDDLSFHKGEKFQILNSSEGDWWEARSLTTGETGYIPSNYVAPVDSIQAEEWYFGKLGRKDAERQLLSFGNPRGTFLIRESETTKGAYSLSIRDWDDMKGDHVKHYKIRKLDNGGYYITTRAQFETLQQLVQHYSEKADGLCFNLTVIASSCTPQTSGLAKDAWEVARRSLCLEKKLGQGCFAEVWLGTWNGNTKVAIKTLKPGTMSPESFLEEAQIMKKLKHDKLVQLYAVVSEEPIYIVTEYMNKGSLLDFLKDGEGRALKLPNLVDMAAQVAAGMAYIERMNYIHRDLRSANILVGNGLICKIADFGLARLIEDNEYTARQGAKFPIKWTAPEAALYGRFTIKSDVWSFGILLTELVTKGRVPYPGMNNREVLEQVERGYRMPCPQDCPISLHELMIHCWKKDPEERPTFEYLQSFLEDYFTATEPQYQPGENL", "test": "FynT enzyme activity (IMAP fluorescence polarization assay)", "assay_type": "biochemical", "details": "60 min pre-incubation, 0.2 μM ATP", "outline": "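Human FynT pre-incubated with compounds 60 min at room temperature, then reacted 2 h at room temperature with fluorescein-labelled p34cdc2 peptide (100 nM final). Stopped with IMAP binding solution; fluorescence polarization read after 60 min. Activity as % of ±ATP control difference; EC50 by curve fitting.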"}, "[4]": {"target": "Btk enzyme (His-Btk) (Homo sapiens (Human), UniProt Q06187)", "sequence (Q06187 whole entry)": "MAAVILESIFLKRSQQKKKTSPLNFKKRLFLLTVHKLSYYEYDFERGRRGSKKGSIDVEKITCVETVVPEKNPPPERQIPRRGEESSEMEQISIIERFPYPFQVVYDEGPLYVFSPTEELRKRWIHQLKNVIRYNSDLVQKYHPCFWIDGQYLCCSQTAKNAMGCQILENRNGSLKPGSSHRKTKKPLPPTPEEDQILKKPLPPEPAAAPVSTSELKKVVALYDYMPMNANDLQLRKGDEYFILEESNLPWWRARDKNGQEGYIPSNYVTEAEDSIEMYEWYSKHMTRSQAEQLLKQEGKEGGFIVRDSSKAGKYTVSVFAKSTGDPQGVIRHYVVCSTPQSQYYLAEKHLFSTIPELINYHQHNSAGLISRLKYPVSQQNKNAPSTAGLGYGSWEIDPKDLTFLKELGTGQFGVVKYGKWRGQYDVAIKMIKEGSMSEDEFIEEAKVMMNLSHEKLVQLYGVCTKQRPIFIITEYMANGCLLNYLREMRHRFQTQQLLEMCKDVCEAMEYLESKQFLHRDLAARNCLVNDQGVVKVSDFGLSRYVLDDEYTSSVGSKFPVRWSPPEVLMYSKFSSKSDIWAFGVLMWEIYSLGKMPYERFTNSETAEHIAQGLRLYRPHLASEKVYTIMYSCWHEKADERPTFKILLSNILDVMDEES", "test": "Btk enzyme activity (IMAP fluorescence polarization assay)"}, "[5]": {"target": "Lck enzyme (Homo sapiens (Human), UniProt P06239)", "sequence (P06239 whole entry)": "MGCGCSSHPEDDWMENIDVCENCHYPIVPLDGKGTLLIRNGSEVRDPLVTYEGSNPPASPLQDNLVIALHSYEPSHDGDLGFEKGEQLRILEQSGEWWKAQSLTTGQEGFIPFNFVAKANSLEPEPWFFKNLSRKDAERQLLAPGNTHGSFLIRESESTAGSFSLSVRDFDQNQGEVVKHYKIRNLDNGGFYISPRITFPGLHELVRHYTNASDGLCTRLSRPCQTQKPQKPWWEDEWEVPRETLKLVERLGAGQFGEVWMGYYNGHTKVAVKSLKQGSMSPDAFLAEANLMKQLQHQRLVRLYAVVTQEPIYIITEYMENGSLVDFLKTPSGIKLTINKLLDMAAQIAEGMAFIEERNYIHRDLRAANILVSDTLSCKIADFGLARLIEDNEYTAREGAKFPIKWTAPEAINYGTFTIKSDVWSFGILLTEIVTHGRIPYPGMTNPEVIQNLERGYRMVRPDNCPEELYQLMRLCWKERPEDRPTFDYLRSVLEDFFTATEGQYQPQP", "test": "Lck enzyme activity (IMAP fluorescence polarization assay)", "details": "read-out: EC50 Lck activity values; IMAP, 60 min pre-incubation, 6 μM ATP; bin bound in μM"}, "[6]": {"details": "IMAP, 60 min pre-incubation, 5 μM ATP, bin bound in nM"}, "[7]": {"details": "IMAP, 60 min pre-incubation, 5 μM ATP, bin bound in μM"}}, "note": "Like-named read-outs stand apart in the source and are kept apart here."}
{"smiles": "CCCc1ccnc(NC(=O)c2ccc(-c3nc([C@@H]4CCCN4C(=O)c4ccnc(Cl)n4)n4ccnc(N)c34)cc2)c1", "note": "[Example 79, (S)-4-(8-amino-3-(1-(2-chloropyrimidine-4-carbonyl)pyrrolidin-2-yl)imidazo[1,5-a]pyrazin-1-yl)-N-(4-propylpyridin-2-yl)benzamide]", "values": [{"measurement": "EC50", "setting": "[1]", "value": "≥ 1000", "unit": "nM"}, {"measurement": "EC50", "setting": "[2]", "value": "≥ 1", "unit": "µM"}, {"measurement": "EC50", "setting": "[3]", "value": "≥ 1000", "unit": "nM"}, {"measurement": "EC50", "setting": "[4]; read-out: EC50 Btk activity values, IMAP, 60 min pre-incubation, 5 μM ATP, bin bound in nM", "value": "< 10", "unit": "nM"}, {"measurement": "EC50", "setting": "[5]", "value": "≥ 1", "unit": "µM"}]}
{"smiles": "Nc1nccn2c([C@@H]3CCCCN3C(=O)c3ccnc(Cl)n3)nc(-c3ccc(C(=O)Nc4cc(F)ccn4)cc3)c12", "note": "[Example 80, (S)-4-(8-amino-3-(1-(2-chloropyrimidine-4-carbonyl)piperidin-2-yl)imidazo[1,5-a]pyrazin-1-yl)-N-(4-fluoropyridin-2-yl)benzamide]", "values": [{"measurement": "EC50", "setting": "[1]", "value": "≥ 1000", "unit": "nM"}, {"measurement": "EC50", "setting": "[2]", "value": "≥ 1", "unit": "µM"}, {"measurement": "EC50", "setting": "[3]", "value": "≥ 1000", "unit": "nM"}, {"measurement": "EC50", "setting": "[4]", "value": "10 to 100", "unit": "nM"}, {"measurement": "EC50 Btk activity values", "setting": "[4]; [6]", "value": "<100", "unit": "nM"}, {"measurement": "EC50", "setting": "[5]", "value": "≥ 1", "unit": "µM"}]}
{"smiles": "COC/C=C/C(=O)N1CCCC[C@H]1c1nc(-c2ccc(C(=O)Nc3cc(F)ccn3)cc2)c2c(N)nccn12", "note": "[Example 81, (S,E)-4-(8-amino-3-(1-(4-methoxybut-2-enoyl)piperidin-2-yl)imidazo[1,5-a]pyrazin-1-yl)-N-(4-fluoropyridin-2-yl)benzamide]", "values": [{"measurement": "EC50", "setting": "[1]", "value": "≥ 1000", "unit": "nM"}, {"measurement": "EC50", "setting": "[2]", "value": "≥ 1", "unit": "µM"}, {"measurement": "EC50", "setting": "[3]", "value": "≥ 1000", "unit": "nM"}, {"measurement": "EC50", "setting": "[4]", "value": "10 to 100", "unit": "nM"}, {"measurement": "EC50 Btk activity values", "setting": "[4]; [6]", "value": "<100", "unit": "nM"}, {"measurement": "EC50", "setting": "[5]", "value": "≥ 1", "unit": "µM"}]}
{"smiles": "COC/C=C/C(=O)N1CCC[C@H]1c1nc(-c2ccc(C(=O)Nc3nc4c(s3)CCCC4)cc2)c2c(N)nccn12", "note": "[Example 82, (S,E)-4-(8-amino-3-(1-(4-methoxybut-2-enoyl)pyrrolidin-2-yl)imidazo[1,5-a]pyrazin-1-yl)-N-(4,5,6,7-tetrahydrobenzo[d]thiazol-2-yl)benzamide]", "values": [{"measurement": "EC50", "setting": "[1]", "value": "≥ 1000", "unit": "nM"}, {"measurement": "EC50", "setting": "[2]", "value": "≥ 1", "unit": "µM"}, {"measurement": "EC50", "setting": "[3]", "value": "≥ 1000", "unit": "nM"}, {"measurement": "EC50", "setting": "[4]", "value": "10 to 100", "unit": "nM"}, {"measurement": "EC50 Btk activity values", "setting": "[4]; [6]", "value": "<100", "unit": "nM"}, {"measurement": "EC50", "setting": "[5]", "value": "≥ 1", "unit": "µM"}]}
{"smiles": "COc1cc(-c2nc([C@@H]3CCCN3C(=O)c3ccnc(Cl)n3)n3ccnc(N)c23)ccc1C(=O)Nc1ccccn1", "note": "[Example 83, (S)-4-(8-amino-3-(1-(2-chloropyrimidine-4-carbonyl)pyrrolidin-2-yl)imidazo[1,5-a]pyrazin-1-yl)-2-methoxy-N-(pyridin-2-yl)benzamide]", "values": [{"measurement": "EC50", "setting": "[1]", "value": "≥ 1000", "unit": "nM"}, {"measurement": "EC50", "setting": "[2]", "value": "≥ 1", "unit": "µM"}, {"measurement": "EC50", "setting": "[3]", "value": "≥ 1000", "unit": "nM"}, {"measurement": "EC50", "setting": "[4]", "value": "10 to 100", "unit": "nM"}, {"measurement": "EC50 Btk activity values", "setting": "[4]; [6]", "value": "<100", "unit": "nM"}, {"measurement": "EC50", "setting": "[5]", "value": "≥ 1", "unit": "µM"}]}
{"smiles": "Nc1nccn2c([C@@H]3CCCN3C(=O)c3ccnc(Cl)n3)nc(-c3ccc(C(=O)Nc4ccccn4)c(F)c3)c12", "note": "[Example 84, (S)-4-(8-amino-3-(1-(2-chloropyrimidine-4-carbonyl)pyrrolidin-2-yl)imidazo[1,5-a]pyrazin-1-yl)-2-fluoro-N-(pyridin-2-yl)benzamide]", "values": [{"measurement": "EC50", "setting": "[1]", "value": "≥ 1000", "unit": "nM"}, {"measurement": "EC50", "setting": "[2]", "value": "≥ 1", "unit": "µM"}, {"measurement": "EC50", "setting": "[3]", "value": "≥ 1000", "unit": "nM"}, {"measurement": "EC50", "setting": "[4]", "value": "10 to 100", "unit": "nM"}, {"measurement": "EC50 Btk activity values", "setting": "[4]; [6]", "value": "<100", "unit": "nM"}, {"measurement": "EC50", "setting": "[5]", "value": "≥ 1", "unit": "µM"}]}
{"smiles": "COC/C=C/C(=O)N1CCCC[C@H]1c1nc(-c2ccc(C(=O)Nc3ccccn3)cc2C)c2c(N)nccn12", "note": "[Example 85, 4-(8-amino-3-((S)-1-((E)-4-methoxybut-2-enoyl)piperidin-2-yl)imidazo[1,5-a]pyrazin-1-yl)-3-methyl-N-(pyridin-2-yl)benzamide]", "values": [{"measurement": "EC50", "setting": "[1]", "value": "≥ 1000", "unit": "nM"}, {"measurement": "EC50", "setting": "[2]", "value": "≥ 1", "unit": "µM"}, {"measurement": "EC50", "setting": "[3]", "value": "≥ 1000", "unit": "nM"}, {"measurement": "EC50", "setting": "[4]", "value": "100 to 1000", "unit": "nM"}, {"measurement": "EC50 Btk activity values", "setting": "[4]; [7]", "value": "<1000", "unit": "nM"}, {"measurement": "EC50", "setting": "[5]", "value": "≥ 1", "unit": "µM"}]}
{"smiles": "COC/C=C/C(=O)N1CCCC[C@H]1c1nc(-c2ccc(C(=O)Nc3ccncn3)cc2)c2c(N)nccn12", "note": "[Example 86, (S,E)-4-(8-amino-3-(1-(4-methoxybut-2-enoyl)piperidin-2-yl)imidazo[1,5-a]pyrazin-1-yl)-N-(pyrimidin-4-yl)benzamide]", "values": [{"measurement": "EC50", "setting": "[1]", "value": "≥ 1000", "unit": "nM"}, {"measurement": "EC50", "setting": "[2]", "value": "≥ 1", "unit": "µM"}, {"measurement": "EC50", "setting": "[3]", "value": "≥ 1000", "unit": "nM"}, {"measurement": "EC50", "setting": "[4]", "value": "100 to 1000", "unit": "nM"}, {"measurement": "EC50 Btk activity values", "setting": "[4]; [7]", "value": "<1000", "unit": "nM"}, {"measurement": "EC50", "setting": "[5]", "value": "≥ 1", "unit": "µM"}]}
